Results: the supplement of paper PMC10307832

Assays:
Test in all cases: relative viability (nuclei count vs DMSO), 5 days (fraction); higher = more cells survive
[1] = compound: CS(=O)(=O)c1ccc(-c2cnc(N)c(C(=O)Nc3ccccc3)n2)cc1 [VE-821] + N=C(N)NC(=N)NCCc1ccccc1 [Phenformin] (partner 250 µM)
In short: (§1)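 Lung cancer cell lines, seeded in 1536-well plates, were treated the following day by pin tool with a single drug or with five library-drug doses (not always all listed) in √10 steps on top of a fixed anchor-drug dose. Cells were fixed and nuclei stained in one step after 5 days, and nuclei were counted. Relative viability is the nuclei count for treated wells divided by that for vehicle wells, reported as medians of duplicate plates.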

[2] = compound: CS(=O)(=O)c1ccc(-c2cnc(N)c(C(=O)Nc3ccccc3)n2)cc1 [VE-821] + COc1cccc2cc(-c3nc([C@H]4CC[C@H](C(=O)O)CC4)n4ncnc(N)c34)[nH]c12 [OSI-027] (partner 0.5 µM)
In short: as §1

[3] = compound: N#CC[C@H](C1CCCC1)n1cc(-c2ncnc3[nH]ccc23)cn1 [Ruxolitinib] + CC(C)C[C@H](NC(=O)[C@H](Cc1ccccc1)NC(=O)c1cnccn1)B(O)O [Bortezomib] (partner 0.002 µM)
In short: as §1

[4] = compound: CS(=O)(=O)c1ccc(C(=O)Nc2ccc(Cl)c(-c3ccccn3)c2)c(Cl)c1 [Vismodegib] + CC(C)C[C@H](NC(=O)[C@H](Cc1ccccc1)NC(=O)c1cnccn1)B(O)O [Bortezomib] (partner 0.002 µM)
In short: as §1

Row | Cell Line | relative viability ([1]; first compound 0.08 µM) | relative viability ([1]; first compound 0.253 µM) | relative viability ([1]; first compound 0.8 µM) | relative viability ([1]; first compound 2.53 µM) | relative viability ([1]; first compound 8 µM) | relative viability ([2]; first compound 0.08 µM) | relative viability ([2]; first compound 0.253 µM) | relative viability ([2]; first compound 0.8 µM) | relative viability ([2]; first compound 2.53 µM) | relative viability ([2]; first compound 8 µM) | relative viability ([3]; first compound 0.08 µM) | relative viability ([3]; first compound 0.253 µM) | relative viability ([3]; first compound 0.8 µM) | relative viability ([3]; first compound 2.53 µM) | relative viability ([3]; first compound 8 µM) | relative viability ([4]; first compound 0.253 µM) | relative viability ([4]; first compound 0.8 µM) | relative viability ([4]; first compound 2.53 µM) | relative viability ([4]; first compound 8 µM) | relative viability ([4]; first compound 0.08 µM)
1 | HCC-78 | 0.646 | 0.639 | 0.746 | 0.731 | 0.617 | 0.385 | 0.349 | 0.372 | 0.401 | 0.326 | 0.379 | 0.365 | 0.441 | 0.354 | 0.391 | 0.498 | 0.488 | 0.549 | 0.4 | 
2 | HCC-366 | 0.709 | 0.57 | 0.555 | 0.502 | 0.12 | 0.931 | 0.789 | 0.605 | 0.492 | 0.138 | 1.03 | 0.987 | 1.16 | 1.01 | 0.845 | 1.03 | 1.06 | 0.934 | 1.06 | 1.06
3 | HCC-827 | 0.425 | 0.398 | 0.391 | 0.458 | 0.335 | 0.845 | 0.865 | 0.886 | 0.838 | 0.683 | 1.05 | 0.993 | 1.01 | 0.881 | 0.798 | 1.06 | 0.982 | 1.14 | 0.985 | 1.05
4 | HOP-62 | 0.671 | 0.611 | 0.77 | 0.696 | 0.667 | 1.04 | 0.809 | 0.73 | 0.925 | 0.697 |  | 0.719 | 1.15 | 0.856 | 0.763 | 0.657 | 0.882 | 0.743 | 0.637 | 0.863
5 | IA-LM |  |  |  |  |  |  |  |  |  |  | 0.998 | 0.931 | 0.971 | 0.917 | 0.61 | 0.825 | 0.867 | 0.754 | 0.795 | 0.892
6 | LC-2-ad | 0.666 | 0.593 | 0.661 | 0.686 | 0.591 | 0.878 | 0.945 | 0.986 | 0.928 | 0.789 | 1.04 | 0.861 | 1.22 | 0.98 | 0.609 | 0.987 | 0.981 | 0.947 | 0.871 | 1.06
7 | LCLC-97TM1 | 0.413 | 0.454 | 0.426 | 0.457 | 0.435 | 0.564 | 0.506 | 0.669 | 0.786 | 0.668 | 0.407 | 0.69 | 0.635 | 0.906 | 0.526 | 0.652 | 0.804 | 0.694 | 0.671 | 0.741
8 | LCLC-103H | 0.335 | 0.31 | 0.352 | 0.351 | 0.269 | 0.478 | 0.478 | 0.404 | 0.468 | 0.365 | 0.922 | 1.17 | 1.04 | 1.15 | 0.951 | 1.03 | 1.07 | 0.99 | 0.983 | 1.05
9 | LK-2 | 0.639 | 0.366 | 0.459 | 0.925 | 0.374 | 0.194 | 0.203 | 0.245 | 0.221 | 0.176 |  |  |  |  |  |  |  |  |  | 
